Experimental data reported in ChEMBL document CHEMBL1201862, “PubChem BioAssay data set” (2004).
Calls of active or inactive are those of the source.

Legend:
[1] = biological target: Dual specificity mitogen-activated protein kinase kinase 1 (Homo sapiens, UniProt Q02750); assay: Navigating the Kinome. Panel member name: MAP2K1; format: functional
[2] = biological target: Tyrosine-protein kinase JAK2 (Homo sapiens, UniProt O60674); format: functional;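 note: JAK2 tested as one member of a kinase panel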
[3] = biological target: RAC-gamma serine/threonine-protein kinase (Homo sapiens, UniProt Q9Y243); format: functional
[4] = biological target: Protein kinase C delta type (Homo sapiens, UniProt Q05655); format: functional
[5] = biological target: Proto-oncogene tyrosine-protein kinase receptor Ret (Homo sapiens, UniProt P07949); format: functional;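 note: measured within a kinome-wide profiling panel, RET as the panel member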
[6] = biological target: Calcium/calmodulin-dependent protein kinase type II subunit gamma (Homo sapiens, UniProt Q13555); format: functional
[7] = biological target: Serine/threonine-protein kinase D3 (Homo sapiens, UniProt O94806); format: functional;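 note: determined within a kinase panel screen, with PRKCN as the panel member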
[8] = biological target: Testis-specific serine/threonine-protein kinase 2 (Homo sapiens, UniProt Q96PF2); format: functional;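 note: part of the Navigating the Kinome panel, target entry STK22B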
[9] = biological target: Cyclin-dependent kinase 2 (Homo sapiens, UniProt P24941); format: functional;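 note: CDK2 measured as one member of a broad kinome profiling panel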
SRSF protein kinase 1 = SRSF protein kinase 1 (Homo sapiens, UniProt Q96SB4); format: functional;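 note: measured as one member of a kinome-wide kinase profiling panel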
[10] = biological target: Casein kinase II subunit alpha (Homo sapiens, UniProt P68400); format: functional
[11] = biological target: Calcium/calmodulin-dependent protein kinase type II subunit delta (Homo sapiens, UniProt Q13557); format: functional
[12] = biological target: Tyrosine-protein kinase JAK3 (Homo sapiens, UniProt P52333); format: functional
[13] = biological target: Casein kinase I isoform gamma-1 (Homo sapiens, UniProt Q9HCP0); format: functional;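 note: measured as the CSNK1G1 member of a kinome profiling panel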
[14] = biological target: Serine/threonine-protein kinase N2 (Homo sapiens, UniProt Q16513); format: functional
[15] = biological target: Serine/threonine-protein kinase TAO1 (Homo sapiens, UniProt Q7L7X3); format: functional
[16] = biological target: Homeodomain-interacting protein kinase 2 (Homo sapiens, UniProt Q9H2X6); format: functional;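 note: measured within a kinome-wide kinase profiling panel, HIPK2 being one panel member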
[17] = biological target: Mitogen-activated protein kinase kinase kinase 20 (Homo sapiens, UniProt Q9NYL2); format: functional
[18] = biological target: Serine/threonine-protein kinase pim-3 (Homo sapiens, UniProt Q86V86); format: functional;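 note: value obtained as one member of a broad kinase panel profiling effort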
[19] = biological target: Non-receptor tyrosine-protein kinase TYK2 (Homo sapiens, UniProt P29597); format: functional
[20] = biological target: Serine/threonine-protein kinase SIK2 (Homo sapiens, UniProt Q9H0K1); assay: Navigating the Kinome. Panel member name: SIK2; format: functional
Misshapen-like kinase 1 = Misshapen-like kinase 1 (Homo sapiens, UniProt Q8N4C8); format: functional;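 note: kinome panel screen with MINK as the panel member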
[21] = biological target: Protein kinase C iota type (Homo sapiens, UniProt P41743); format: functional;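 note: measured within a kinome-wide kinase panel, PRKCI as panel member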
[22] = biological target: Interleukin-1 receptor-associated kinase 1 (Homo sapiens, UniProt P51617); format: functional;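 note: IRAK1 tested as one member of a kinome panel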
[23] = biological target: RAC-alpha serine/threonine-protein kinase (Homo sapiens, UniProt P31749); format: functional;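 note: AKT1 affinity measured as one member of a kinome-wide kinase profiling panel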
[24] = biological target: Cyclin-dependent kinase 8 (Homo sapiens, UniProt P49336); assay: Navigating the Kinome. Panel member name: CDK8; format: functional
[25] = biological target: BDNF/NT-3 growth factors receptor (Homo sapiens, UniProt Q16620); format: functional;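 note: NTRK2 measured as one member of a broad kinome-wide kinase profiling panel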
[26] = biological target: Mitogen-activated protein kinase 12 (Homo sapiens, UniProt P53778); format: functional;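 note: measured as one member of a kinome-wide kinase profiling panel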
[27] = biological target: Lymphokine-activated killer T-cell-originated protein kinase (Homo sapiens, UniProt Q96KB5); format: functional;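 note: value comes from a kinase panel screen in which TOPK was one of the panel members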
[28] = biological target: Serine/threonine-protein kinase MRCK alpha (Homo sapiens, UniProt Q5VT25); format: functional
[29] = biological target: Inhibitor of nuclear factor kappa-B kinase subunit epsilon (Homo sapiens, UniProt Q14164); assay: Navigating the Kinome. Panel member name: IKBKE; format: functional
[30] = biological target: Calcium/calmodulin-dependent protein kinase type II subunit alpha (Homo sapiens, UniProt Q9UQM7); assay: Navigating the Kinome. Panel member name: CAMK2A; format: functional
[31] = biological target: Leukocyte tyrosine kinase receptor (Homo sapiens, UniProt P29376); assay: Navigating the Kinome. Panel member name: LTK; format: functional
[32] = biological target: Tyrosine-protein kinase FRK (Homo sapiens, UniProt P42685); format: functional;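 note: FRK tested as one member of a kinome panel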
HEK293 = assay: Fluorescence-based counterscreen for potentiators or agonists of NPY-Y1: cell-based high-throughput dose response assay for inhibitors of cyclic nucleotide gated ion channel (CNGC) activity. In this assay, the parental HEK293 cell line transfected with a cyclic-nucleotide gated ion channel (CNGC)-based cAMP sensor is used to measure inhibition of isoproterenol-induced CNGC …; format: functional; conditions: Homo sapiens
[33] = biological target: T1, Mannose-6-phosphate isomerase (Homo sapiens, UniProt P34949); assay: human PMI inhibitors, high substrate, primary screen, biochemical, fluorescence intensity, high mannose 6-phosphate (AID 1220)
T1 sequence (P34949 whole entry): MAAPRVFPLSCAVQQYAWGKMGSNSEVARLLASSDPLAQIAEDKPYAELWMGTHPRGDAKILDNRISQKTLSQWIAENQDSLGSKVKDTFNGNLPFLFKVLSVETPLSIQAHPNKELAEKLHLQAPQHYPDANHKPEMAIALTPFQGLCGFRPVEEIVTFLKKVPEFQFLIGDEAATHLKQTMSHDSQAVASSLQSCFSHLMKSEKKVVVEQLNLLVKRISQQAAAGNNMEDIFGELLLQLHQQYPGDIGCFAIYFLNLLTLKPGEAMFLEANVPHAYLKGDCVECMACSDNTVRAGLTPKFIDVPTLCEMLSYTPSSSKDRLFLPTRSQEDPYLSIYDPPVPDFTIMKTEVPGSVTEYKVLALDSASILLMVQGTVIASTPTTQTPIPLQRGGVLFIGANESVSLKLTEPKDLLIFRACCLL

[34] = biological target: T2, Sentrin-specific protease 8 (Homo sapiens, UniProt Q96LD8); format: functional
T2 sequence (Q96LD8 whole entry): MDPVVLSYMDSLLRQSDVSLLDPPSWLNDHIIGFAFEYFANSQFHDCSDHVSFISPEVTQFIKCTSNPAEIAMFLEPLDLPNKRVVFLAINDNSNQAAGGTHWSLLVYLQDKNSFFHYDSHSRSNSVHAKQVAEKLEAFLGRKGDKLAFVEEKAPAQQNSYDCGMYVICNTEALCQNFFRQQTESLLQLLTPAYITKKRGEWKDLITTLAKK

Tyrosine-protein kinase JAK3, sequence (P52333 whole entry, canonical isoform): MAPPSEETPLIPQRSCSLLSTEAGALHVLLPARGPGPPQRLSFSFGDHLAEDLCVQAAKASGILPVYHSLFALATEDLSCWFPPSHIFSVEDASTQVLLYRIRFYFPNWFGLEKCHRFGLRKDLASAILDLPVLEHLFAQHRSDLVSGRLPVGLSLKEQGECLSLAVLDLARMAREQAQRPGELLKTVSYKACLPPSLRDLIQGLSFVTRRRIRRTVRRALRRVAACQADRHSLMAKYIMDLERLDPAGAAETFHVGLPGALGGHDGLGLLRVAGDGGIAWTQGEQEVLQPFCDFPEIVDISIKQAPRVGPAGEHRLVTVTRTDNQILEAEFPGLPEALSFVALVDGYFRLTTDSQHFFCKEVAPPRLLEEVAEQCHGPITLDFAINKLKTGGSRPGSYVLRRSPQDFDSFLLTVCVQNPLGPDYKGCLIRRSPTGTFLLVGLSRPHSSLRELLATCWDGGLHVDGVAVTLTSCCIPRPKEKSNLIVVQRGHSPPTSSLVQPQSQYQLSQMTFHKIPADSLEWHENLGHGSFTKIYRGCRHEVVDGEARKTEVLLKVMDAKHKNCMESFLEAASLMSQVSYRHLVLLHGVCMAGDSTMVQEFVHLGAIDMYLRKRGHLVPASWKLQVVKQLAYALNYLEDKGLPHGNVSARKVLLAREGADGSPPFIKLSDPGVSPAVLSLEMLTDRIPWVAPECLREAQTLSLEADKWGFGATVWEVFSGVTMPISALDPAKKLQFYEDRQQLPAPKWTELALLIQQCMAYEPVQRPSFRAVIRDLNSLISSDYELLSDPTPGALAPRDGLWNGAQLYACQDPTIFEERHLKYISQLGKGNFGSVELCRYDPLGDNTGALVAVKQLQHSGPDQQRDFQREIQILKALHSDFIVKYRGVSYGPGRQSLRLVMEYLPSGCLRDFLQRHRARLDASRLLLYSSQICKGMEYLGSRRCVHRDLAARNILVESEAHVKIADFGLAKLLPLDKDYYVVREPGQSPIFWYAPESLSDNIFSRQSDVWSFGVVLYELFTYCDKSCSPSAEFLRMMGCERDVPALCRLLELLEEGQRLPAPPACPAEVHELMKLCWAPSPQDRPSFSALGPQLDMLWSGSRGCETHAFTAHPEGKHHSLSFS
Non-receptor tyrosine-protein kinase TYK2, sequence (P29597 whole entry): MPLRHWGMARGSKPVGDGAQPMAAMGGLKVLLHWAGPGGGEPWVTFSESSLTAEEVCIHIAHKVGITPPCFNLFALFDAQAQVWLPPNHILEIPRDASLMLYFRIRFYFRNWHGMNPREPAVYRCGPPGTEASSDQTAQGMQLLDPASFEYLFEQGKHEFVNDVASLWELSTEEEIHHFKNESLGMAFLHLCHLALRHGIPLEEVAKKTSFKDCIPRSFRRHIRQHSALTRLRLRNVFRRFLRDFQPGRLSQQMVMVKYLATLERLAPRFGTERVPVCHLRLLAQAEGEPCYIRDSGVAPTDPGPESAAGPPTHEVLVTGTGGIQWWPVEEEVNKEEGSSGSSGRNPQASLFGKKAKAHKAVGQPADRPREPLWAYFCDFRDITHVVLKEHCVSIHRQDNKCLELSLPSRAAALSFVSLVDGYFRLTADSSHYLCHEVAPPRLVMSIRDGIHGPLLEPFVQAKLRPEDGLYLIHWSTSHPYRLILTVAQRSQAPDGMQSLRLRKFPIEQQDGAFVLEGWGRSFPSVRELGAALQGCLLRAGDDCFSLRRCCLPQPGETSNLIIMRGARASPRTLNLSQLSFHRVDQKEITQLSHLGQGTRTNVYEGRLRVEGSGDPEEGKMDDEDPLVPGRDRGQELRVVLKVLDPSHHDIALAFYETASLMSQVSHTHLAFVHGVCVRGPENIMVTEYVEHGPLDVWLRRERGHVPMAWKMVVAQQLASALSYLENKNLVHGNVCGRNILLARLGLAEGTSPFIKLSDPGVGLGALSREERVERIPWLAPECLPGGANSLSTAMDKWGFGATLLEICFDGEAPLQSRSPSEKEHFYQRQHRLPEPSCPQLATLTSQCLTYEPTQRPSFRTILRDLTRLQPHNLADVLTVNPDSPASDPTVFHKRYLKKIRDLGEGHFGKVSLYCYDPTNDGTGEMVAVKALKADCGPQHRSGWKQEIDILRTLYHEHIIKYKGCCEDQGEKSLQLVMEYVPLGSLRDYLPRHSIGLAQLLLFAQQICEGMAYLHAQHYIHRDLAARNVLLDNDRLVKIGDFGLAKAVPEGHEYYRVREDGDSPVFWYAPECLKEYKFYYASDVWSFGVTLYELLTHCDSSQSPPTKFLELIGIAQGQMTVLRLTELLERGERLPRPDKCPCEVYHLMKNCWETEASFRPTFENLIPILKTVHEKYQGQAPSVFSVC
Protein kinase C iota type, sequence (P41743 whole entry): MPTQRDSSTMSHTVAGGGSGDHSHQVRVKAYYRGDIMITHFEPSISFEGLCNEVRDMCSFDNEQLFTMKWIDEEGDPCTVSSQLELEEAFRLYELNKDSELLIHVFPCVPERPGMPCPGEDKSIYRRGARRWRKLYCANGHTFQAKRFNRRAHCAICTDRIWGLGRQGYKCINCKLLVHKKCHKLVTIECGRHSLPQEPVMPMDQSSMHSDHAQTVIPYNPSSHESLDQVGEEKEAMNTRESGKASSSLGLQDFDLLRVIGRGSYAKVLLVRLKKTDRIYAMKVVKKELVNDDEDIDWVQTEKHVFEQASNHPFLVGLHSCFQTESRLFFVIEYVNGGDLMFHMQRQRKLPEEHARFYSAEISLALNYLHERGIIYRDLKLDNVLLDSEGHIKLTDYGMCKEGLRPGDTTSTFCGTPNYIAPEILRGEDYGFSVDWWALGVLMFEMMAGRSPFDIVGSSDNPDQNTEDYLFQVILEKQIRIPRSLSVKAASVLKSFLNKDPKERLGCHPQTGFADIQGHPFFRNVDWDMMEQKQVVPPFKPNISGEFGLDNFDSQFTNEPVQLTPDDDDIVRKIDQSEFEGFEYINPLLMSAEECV
Mitogen-activated protein kinase kinase kinase 20, sequence (Q9NYL2 whole entry): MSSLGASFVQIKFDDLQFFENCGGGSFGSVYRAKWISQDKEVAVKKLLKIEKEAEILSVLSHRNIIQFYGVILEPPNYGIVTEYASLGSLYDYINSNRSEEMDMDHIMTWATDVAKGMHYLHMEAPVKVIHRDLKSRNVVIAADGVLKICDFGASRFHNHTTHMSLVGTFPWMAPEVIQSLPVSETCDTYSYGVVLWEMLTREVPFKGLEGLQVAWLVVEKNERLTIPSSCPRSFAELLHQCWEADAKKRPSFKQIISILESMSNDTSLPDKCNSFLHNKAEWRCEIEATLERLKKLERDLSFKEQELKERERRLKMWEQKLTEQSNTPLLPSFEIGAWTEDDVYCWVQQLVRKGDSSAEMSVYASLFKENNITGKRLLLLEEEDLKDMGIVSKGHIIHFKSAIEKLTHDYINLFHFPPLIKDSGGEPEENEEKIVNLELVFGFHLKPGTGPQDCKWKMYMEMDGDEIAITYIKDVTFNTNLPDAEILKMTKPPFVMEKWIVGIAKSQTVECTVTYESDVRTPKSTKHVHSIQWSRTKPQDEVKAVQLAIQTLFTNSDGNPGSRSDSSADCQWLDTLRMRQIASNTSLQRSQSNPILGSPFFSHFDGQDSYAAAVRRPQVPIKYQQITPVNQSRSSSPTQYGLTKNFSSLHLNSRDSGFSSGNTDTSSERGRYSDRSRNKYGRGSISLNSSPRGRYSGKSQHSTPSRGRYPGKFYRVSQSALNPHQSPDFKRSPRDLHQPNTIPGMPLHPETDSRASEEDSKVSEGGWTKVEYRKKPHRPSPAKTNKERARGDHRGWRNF
Testis-specific serine/threonine-protein kinase 2, sequence (Q96PF2 whole entry): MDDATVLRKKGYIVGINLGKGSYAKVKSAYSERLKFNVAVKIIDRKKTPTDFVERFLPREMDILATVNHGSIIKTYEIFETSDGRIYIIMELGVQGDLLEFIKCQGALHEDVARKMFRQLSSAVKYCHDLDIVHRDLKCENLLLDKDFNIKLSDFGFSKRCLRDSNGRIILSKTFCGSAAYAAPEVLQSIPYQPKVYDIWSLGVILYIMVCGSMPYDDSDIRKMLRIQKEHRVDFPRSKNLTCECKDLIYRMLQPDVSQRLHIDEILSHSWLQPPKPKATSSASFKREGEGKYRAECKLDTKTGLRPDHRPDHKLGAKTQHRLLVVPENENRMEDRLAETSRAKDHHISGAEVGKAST
Serine/threonine-protein kinase TAO1, sequence (Q7L7X3 whole entry): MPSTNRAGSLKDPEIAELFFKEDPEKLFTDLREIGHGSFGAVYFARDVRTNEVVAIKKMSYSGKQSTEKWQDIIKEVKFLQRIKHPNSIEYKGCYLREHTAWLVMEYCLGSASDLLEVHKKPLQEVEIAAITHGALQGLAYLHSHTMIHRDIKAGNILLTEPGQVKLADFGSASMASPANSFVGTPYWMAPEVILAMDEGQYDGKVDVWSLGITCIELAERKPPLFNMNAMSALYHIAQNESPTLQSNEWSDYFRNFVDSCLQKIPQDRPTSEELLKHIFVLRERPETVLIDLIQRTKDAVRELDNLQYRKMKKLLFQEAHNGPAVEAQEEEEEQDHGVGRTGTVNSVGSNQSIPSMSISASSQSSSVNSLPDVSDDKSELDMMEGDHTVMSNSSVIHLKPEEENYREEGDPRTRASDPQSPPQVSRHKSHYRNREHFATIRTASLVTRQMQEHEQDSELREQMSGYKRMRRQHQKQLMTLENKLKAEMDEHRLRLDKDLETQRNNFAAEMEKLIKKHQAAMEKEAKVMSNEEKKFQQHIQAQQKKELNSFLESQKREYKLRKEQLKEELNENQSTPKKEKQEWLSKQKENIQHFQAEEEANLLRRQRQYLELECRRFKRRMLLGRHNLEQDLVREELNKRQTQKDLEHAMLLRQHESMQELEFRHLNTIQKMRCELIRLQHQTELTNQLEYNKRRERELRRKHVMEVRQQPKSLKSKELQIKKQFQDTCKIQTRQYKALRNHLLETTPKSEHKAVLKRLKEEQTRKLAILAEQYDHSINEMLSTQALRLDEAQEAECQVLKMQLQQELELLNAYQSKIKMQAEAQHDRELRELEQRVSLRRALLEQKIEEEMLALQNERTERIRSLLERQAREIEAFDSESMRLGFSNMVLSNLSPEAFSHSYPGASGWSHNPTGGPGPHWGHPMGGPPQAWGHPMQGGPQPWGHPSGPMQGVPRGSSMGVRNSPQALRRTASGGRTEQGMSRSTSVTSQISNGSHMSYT

OC1CCC(Nc2cc(Cl)nc(-c3c[nH]c4ncccc34)n2)CC1 (configuration not stated)
Ki [1]: 31.6 nM (active) | Ki [2]: 158 nM (active) | Ki [3]: > 6310 nM (inactive) | Ki [4]: 126 nM (active) | Ki [5]: > 2510 nM (inactive) | Ki [6]: 794 nM (active) | Ki [7]: 158 nM (active) | Ki [8]: > 1000 nM (inactive) | Ki [9]: 251 nM (active) | Ki (SRSF protein kinase 1): > 7940 nM (inactive) | Ki [10]: 100 nM (active) | Ki [11]: > 1580 nM (inactive) | Ki [12]: 200 nM (active) | Ki [13]: 3160 nM (active) | Ki [14]: 12.6 nM (active) | Ki [15]: 2510 nM (active) | Ki [16]: 79.4 nM (active) | Ki [17]: > 7940 nM (inactive) | Ki [18]: 1260 nM (active) | Ki [19]: > 1260 nM (inactive) | Ki [20]: 398 nM (active) | Ki (Misshapen-like kinase 1): 3.98 nM (active) | Ki [21]: 398 nM (active) | Ki [22]: 1260 nM (active) | Ki [23]: > 5010 nM (inactive) | Ki [24]: 501 nM (active) | Ki [25]: > 5010 nM (inactive) | Ki [26]: 1580 nM (active) | Ki [27]: 3980 nM (active) | Ki [28]: 20 nM (active) | Ki [29]: > 3160 nM (inactive) | Ki [30]: > 3160 nM (inactive) | Ki [31]: > 2510 nM (inactive) | Ki [32]: 1000 nM (active)

COCC/N=c1\scc(-c2cccs2)n1/N=C/c1ccc(O)c(O)c1O
IC50 (HEK293): > 11800 nM (not active) | IC50 [33]: 23800 nM (active)

O=C(COC(=O)c1ccc([N+](=O)[O-])s1)NCCc1ccccc1
IC50 [34]: 2820 nM (active)
